Data taken from ChEMBL document CHEMBL5149985, “Discovery of cytotoxic natural products from Red Sea sponges: Structure and synthesis” (Eur J Med Chem, 2021).
pIC50: −log10 of the molar value.

How the values were obtained:
[1] = test system: A549; assay: Anticancer activity against human A549 cells assessed as inhibition of cell growth; assay type: functional, cell-based
[2] = test system: P388; assay: Anticancer activity against mouse P388 cells assessed as inhibition of cell growth; assay type: functional, cell-based
[3] = test system: HT-29; assay: Anticancer activity against human HT-29 cells assessed as inhibition of cell growth; assay type: functional, cell-based
[4] = test system: P388; assay: Anticancer activity against mouse P388 cells assessed as reduction in cell growth; assay type: functional, cell-based
[5] = test system: PC-3; assay: Anticancer activity against human PC-3 cells assessed as inhibition of cell growth; assay type: functional, cell-based
[6] = test system: MCF7; assay: Anticancer activity against human MCF7 cells assessed as inhibition of cell growth; assay type: functional, cell-based
[7] = test system: A549; assay: Anticancer activity against human A549 cells assessed as cell growth inhibition; assay type: functional, cell-based
[8] = test system: OVCAR-3; assay: Anticancer activity against human OVCAR-3 cells assessed as cell growth inhibition by crystal violet staining based assay; assay type: functional
[9] = test system: HT-29; assay: Anticancer activity against human HT-29 cells assessed as cell growth inhibition by crystal violet staining based assay; assay type: functional
[10] = test system: MM1.S; assay: Anticancer activity against human MM1.S cells assessed as cell growth inhibition by MTT assay; assay type: functional, cell-based
[11] = test system: MDA-MB-231; assay: Antiproliferative activity against human MDA-MB-231 cells assessed as cell growth inhibition incubated for 72 hrs by SRB assay; assay type: functional, cell-based; settings: MDA-MB-231, 72 h
[12] = test system: HT-29; assay: Antiproliferative activity against human HT-29 cells assessed as cell growth inhibition incubated for 72 hrs by SRB assay; assay type: functional, cell-based; settings: HT-29, 72 h
[13] = test system: A549; assay: Antiproliferative activity against human A549 cells assessed as cell growth inhibition incubated for 72 hrs by SRB assay; assay type: functional, cell-based; settings: A549, 72 h
[14] = test system: HCT-116; assay: cells; settings: Homo sapiens
Description: Anticancer activity against human HCT-116 cells assessed as inhibition of cell growth by MTT assay

[15] = test system: MCF7; assay: Anticancer activity against human MCF7 cells assessed as inhibition of cell growth by MTT assay; assay type: functional, cell-based
[16] = test system: HepG2; assay: cells; settings: Homo sapiens
Description: Anticancer activity against human HepG2 cells assessed as inhibition of cell growth by MTT assay

[17] = test system: HT-29; assay: Anticancer activity against human HT-29 cells assessed as cell growth inhibition; assay type: functional, cell-based
[18] = test system: P388; assay: Anticancer activity against mouse P388 cells assessed as cell growth inhibition; assay type: functional, cell-based
[19] = test system: SK-MEL-28; assay: Anticancer activity against human MEL-28 cells assessed as cell growth inhibition; assay type: functional, cell-based
[20] = test system: Daoy; assay: Anticancer activity against human Daoy cells assessed as inhibition of cell growth; assay type: functional, cell-based
[21] = test system: HeLa; assay: Anticancer activity against human HeLa cells assessed as inhibition of cell growth; assay type: functional, cell-based
[22] = test system: HepG2; assay: Anticancer activity against human HepG2 cells assessed as inhibition of cell growth; assay type: functional, cell-based
[23] = test system: MDA-MB-231; assay: Anticancer activity against human MDA-MB-231 cells assessed as cell viability measured after 24 hrs by MTT assay; assay type: functional, cell-based; settings: MDA-MB-231, 24 h
[24] = test system: HCT-116; assay: Antiproliferative activity against human HCT-116 cells assessed as cell viability measured after 24 hrs by MTT assay; assay type: functional, cell-based; settings: HCT-116, 24 h
[25] = test system: HeLa; assay: Antiproliferative activity against human HeLa cells assessed as cell viability measured after 24 hrs by MTT assay; assay type: functional, cell-based
[26] = test system: A549; assay: Anticancer activity against human A549 cells assessed as inhibition of cell growth by dilution assay; assay type: functional, cell-based
[27] = test system: P388; assay: Anticancer activity against mouse P388 cells assessed as inhibition of cell growth by dilution assay; assay type: functional, cell-based
[28] = test system: HT-29; assay: Anticancer activity against human HT-29 cells assessed as inhibition of cell growth by dilution assay; assay type: functional, cell-based
[29] = test system: BT-474; assay: Anticancer activity against human BT-474 cells assessed as cell growth inhibition incubated for 48 hrs by MTT assay; assay type: functional, cell-based; settings: BT-474, 48 h
[30] = test system: KB 3-1; assay: Anticancer activity against human KB 3-1 cells assessed as inhibition in cell growth; assay type: functional, cell-based

C=C(CCC[C@@]1(C)CC[C@H]([C@@H](C)C(=O)OC)OO1)CCC1(O)C(=C)CCCC1(C)C (stereo not given in full)
pIC50 [1]: < 8.62
pIC50 [2]: < 8.62
pIC50 [3]: < 8.62

CC(=O)Oc1c(O)ccc(O)c1C[C@]1(C)[C@@H](C)CC[C@]2(C)C(C)=CCC[C@@H]12
pIC50 [4]: > 8.80

CC1=C(CC/C(C)=C/CC[C@@]2(C)CC[C@H]([C@@H](C)C(=O)O)OO2)C(C)(C)CCC1
pIC50 [5]: 5.10
pIC50 [6]: 5.15
pIC50 [7]: 5.52

O=C1Nc2ccc(Br)cc2[C@@]1(c1cc2ccccc2[nH]1)c1c[nH]c2ccccc12
pIC50 [8]: 5.15
pIC50 [9]: 5.10
pIC50 [10]: 5.05

COc1ccc2[nH]c3c(-c4c[nH]c5cc(O)ccc45)ncc(C(=O)O)c3c2c1
pIC50 [11]: 4.05
pIC50 [12]: 4.07
pIC50 [13]: 4.00

CC(=O)O[C@H]1C[C@@H]2[C@@]3(C)CCCC(C)(C)[C@@H]3CC[C@@]2(C)[C@@H]2CC=C(C(C)=O)[C@@H]3[C@@H](O)C[C@@]132
pIC50 [14]: 8.77
pIC50 [15]: 8.89
pIC50 [16]: 8.33

C=C1CCC[C@@H]2[C@@](C)(CC[C@@]3(C)CCn4cnc5ncnc(c54)N3O)[C@H](C)CC[C@@]12C
pIC50 [7]: 5.93
pIC50 [17]: 5.93
pIC50 [18]: 5.93
pIC50 [19]: 5.93

O=C(O)CCCCCC#C/C=C/CCCCC#C/C=C/Br
pIC50 [20]: 7.18
pIC50 [21]: 7.06

CC1=C(CCC(C)(O)/C=C/C[C@@]2(C)CC[C@H]([C@@H](C)C(=O)O)OO2)C(C)(C)CCC1 (stereo not given in full)
pIC50 [1]: < 8.62
pIC50 [2]: < 8.62
pIC50 [3]: < 8.62

C/C1=C/C(=O)O[C@@H]2C[C@@H](CC[C@H](C)/C=C\CC1)O[C@@](O)([C@@H]1CSC(=O)N1)C2 [LATRUNCULIN B]
pIC50 [22]: 4.72

COC1=C(Br)C[C@@]2(OC=C1Br)ON=C(C(=O)NCCCOc1c(Br)cc(CCNC(N)=O)cc1Br)[C@H]2O
pIC50 [23]: 4.71
pIC50 [24]: 5.09
pIC50 [25]: 4.65

CC1(C)CCC[C@]2(C)[C@H]3C[C@@H](O)[C@]4(C)c5cocc5C(=O)C[C@H]4[C@]3(C)CC[C@@H]12 [SALMAHYRTISOL B]
pIC50 [26]: 8.66
pIC50 [27]: 8.66
pIC50 [28]: < 8.66

C[C@@H]1CN2CCC[C@H]3CCCCCC[C@H]4CCN5CCC[C@@](O)(CCCCCC[C@@H]1O[C@H]32)[C@H]5O4 [XESTOSPONGIN B]
pIC50 [29]: 4.28

CC[C@@]1(C)CCC[C@]2(C)[C@H]3C[C@H](OC(C)=O)[C@]4(C)[C@H]5CO[C@](C)(O)C5CC[C@H]4[C@]3(C)CC[C@@H]12 (stereo not given in full)
pIC50 [14]: 8.77
pIC50 [15]: 8.40
pIC50 [16]: 8.48

[O-][N+]12CCC[C@]3(O)CCCCCC[C@@H]4CCN5CCC[C@](O)(CCCCCC[C@H](CC1)O[C@@H]32)[C@@H]5O4 (stereo not given in full)
pIC50 [29]: 4.45

CC1=CCC2C(CC[C@@]2(C)O)C(C)(C)[C@@H]1CC[C@H]1[C@@](C)(O)CCC2OC(C)(C)[C@H](O)CC[C@@]21C (stereo not given in full)
pIC50 [1]: 5.05
pIC50 [5]: 5.10
pIC50 [30]: 8.32

[O-][N+]12CCC[C@]3(O)CCCCCC[C@@H]4CCN5CCC[C@@H](CCCCCC[C@H](CC1)O[C@@H]32)[C@@H]5O4 (stereo not given in full)
pIC50 [29]: 4.53

CC[C@@]1(C)CCC[C@]2(C)[C@H]3C[C@H](OC(C)=O)[C@]45C[C@@H](O)[C@H]4C(C(C)=O)=CC[C@H]5[C@]3(C)CC[C@@H]12
pIC50 [14]: 8.54
pIC50 [15]: 8.54
pIC50 [16]: 8.42

CC(=O)O[C@H]1C[C@@H]2[C@@]3(C)CCCC(C)(C)[C@@H]3CC[C@@]2(C)[C@@H]2CC=C(C(C)=O)[C@@H]3[C@H](O)C[C@@]132
pIC50 [14]: 9.22
pIC50 [15]: 8.62
pIC50 [16]: 8.33

O=C(O)CCCC#CC#C/C=C/CCCCCCC=C(Br)Br
pIC50 [22]: 7.39
pIC50 [20]: 7.45
pIC50 [21]: 7.27

CCCCCCCCCCCCC(=O)N[C@@H](CO)[C@H](O)[C@H](O)CCCCCCCCCC
pIC50 [22]: 3.97
pIC50 [6]: < 3.70

CC(=O)O[C@H]1C[C@H]2[C@@](C)(CCC3C(C)(C)CCC[C@@]32C)[C@@H]2C[C@@H](OC(C)=O)C(C(C)=O)=C[C@@]12C (stereo not given in full)
pIC50 [14]: 8.57
pIC50 [15]: 8.34
pIC50 [16]: 8.59

COC1=C(Br)C[C@@]2(OC=C1Br)ON=C(C(=O)NCCCOc1c(Br)cc(C(O)CNC(N)=O)cc1Br)[C@H]2O (stereo not given in full)
pIC50 [23]: 4.88
pIC50 [24]: 5.15
pIC50 [25]: 4.75

CCCCCCCCCCCCCCCCCCCCC[C@@H](O)[C@@H](O)[C@H](CO)NC(=O)[C@H](O)CCCCCCCCCCCCCCCC
pIC50 [22]: 4.61
pIC50 [6]: 4.57
